Data as given in publication PMC11211567, “Tetrandrine inhibits aldosterone synthesis by covalently targeting CYP11A1 to attenuate hypertension” (Frontiers in Pharmacology, 2024).

Molecular target: T1, CYP11A1 (Homo sapiens, UniProt P05108)
T1 construct: recombinant WT human CYP11A1, pET-28a(+), C-terminal His6, coexpressed with GroEL/ES in E. coli, purified; MST
T1 sequence (P05108 40-521): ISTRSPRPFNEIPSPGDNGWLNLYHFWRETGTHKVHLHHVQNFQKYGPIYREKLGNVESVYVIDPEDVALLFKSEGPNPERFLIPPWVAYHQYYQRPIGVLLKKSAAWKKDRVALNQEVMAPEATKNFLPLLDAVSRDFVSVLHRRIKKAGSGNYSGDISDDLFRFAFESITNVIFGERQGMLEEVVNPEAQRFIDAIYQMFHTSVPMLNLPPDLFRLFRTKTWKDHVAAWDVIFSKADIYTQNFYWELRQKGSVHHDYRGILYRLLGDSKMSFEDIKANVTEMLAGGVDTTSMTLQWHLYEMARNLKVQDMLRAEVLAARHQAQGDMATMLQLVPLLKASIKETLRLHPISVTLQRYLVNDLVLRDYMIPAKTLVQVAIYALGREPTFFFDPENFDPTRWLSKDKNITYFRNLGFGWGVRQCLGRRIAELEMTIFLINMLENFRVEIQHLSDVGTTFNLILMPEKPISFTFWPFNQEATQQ
Assay: MST with purified protein; in-gel competition with Tet probe; CO difference spectra; cell activity IC50 […]
Format: binding

Kd: 12.5 µM
Structure (SMILES): COc1ccc2cc1Oc1ccc(cc1)C[C@H]1c3cc(c(OC)cc3CCN1C)Oc1c(OC)c(OC)cc3c1[C@H](C2)N(C)CC3 [Tet, Tetrandrine]
